In patent US10179777B2, “3-(1H-benzimidazol-2-yl)-1H-pyridin-2-one derivatives” (MERCK PATENT GMBH, priority 2015, dated 2019):

tested on: ALK1-mediated SMAD1/5 phosphorylation in HUVEC cells; test: Cell-based immunofluorescence assay for ALK1-mediated SMAD1/5 phosphorylation in HUVEC cells; conditions: Homo sapiens, 1.5 ng/ml BMP-9 with compound for 2 h, % nuclei with pSMAD1/5 signal, read-out: Smad 1/5 IC50
From the text: In vitro cell-based Immunofluorescence-Assay for identification of inhibitors of ALK1-mediated SMAD1/5 phosphorylation in HUVEC cells:
ALK1 is a type I cell-surface receptor for the TGF-β superfamily of ligands. In adults ALK1 is mainly expressed on activated endothelial cells, e.g. during wound healing or in tumor angiogenesis. BMP9 and BMP10 are high affinity ligands for ALK1.
BMP9 and BMP10 binding leads to the phosphorylation of so-called Smad1 at Ser463 and Ser465 in the carboxy-terminal motif SSXS, as well as Smad5 and Smad8 at their corresponding sites. These phosphorylated Smads dimerize with the coactivating Smad4 and translocate to the nucleus, where they stimulate transcription of target genes.
Primary endothelial cells (HUVEC: Human Umbilical Vein Endothelial Cells; supplier Promocell) are cultivated in the culture medium obtained from Promocell (with supplements corresponding to 5% FCS) for maximum 5 passages, seeded into black 384-well culture plates with clear bottom (3000 cells/well/30 μl), and incubated for 16-24 hours at 37° C., 5% CO2 and 90% rH.
The following day cells were serum-starved for 2-3 h in order to stop TGF-ß-mediated signalling derived from ligands present in FBS. 1.5 ng/ml BMP-9 was than added in parallel with test compounds for 2 h at 37° C., 5% CO2 in order to identify compounds which block functional activity of ALK1 leading to phosphorylation and nuclear translocation of SMAD1/5/8.
After fixation (15 min 4% Formaldehyd in PBS) and permeabilization (10 min 0.2% Triton X-100 in PBS) an indirect immunocytochemical staining is performed with a specific Phospho-Smad1/5 (Ser463/465) antibody (Cell Signaling #9516) and Alexa488-labelled secondary anti-rabbit-IgG-antibody. DNA staining with Propidium Iodide allowed parallel cell counting. Image acquisition and analysis was performed on an MDS ImageXpress Ultra confocal High Content Reader using the image analysis software MetaXpress. Final read-out were % nuclei with a pSMAD1/5 signal above a defined background.
The final DMSO concentration in the assay was 0.5%. DMSO-treated HUVEC cells served as neutral control (=0%) and cells treated with 10 μM of a reference inhibitor described in a patent served as inhibitor control (=−100%). Raw data were normalised to the neutral and inhibitory references. The assay was performed as dose response (10 compound dilutions, 1 nM-30 μM).

Row | SMILES | IC50 [nM]
1 | O=c1[nH]cc(-c2ccnc3ccccc23)cc1-c1nc2cc(N3CCOCC3)ccc2[nH]1 [Compound A9, 3-(6-Morpholin-4-yl-1H-benzimidazol-2-yl)-5-quinolin-4-yl-1H-pyridin-2-one] | 5700
2 | CN1C2CCC1CN(c1ccc3[nH]c(-c4cc(-c5ccnc6[nH]ccc56)c[nH]c4=O)nc3c1)C2 [Compound A53, 3-[6-(8-Methyl-3,8-diaza-bicyclo[3.2.1]oct-3-yl)-1H-benzimidazol-2-yl]-5-(1H-pyrrolo[2,3-b]pyridin-4-yl)-1H-pyridin-2-one] | 2800
3 | O=c1[nH]cc(-c2ccnc3ccoc23)cc1-c1nc2cc(N3CCNCC3)ccc2[nH]1 [Compound A18, 5-Furo[3,2-b]pyridin-7-yl-3-(5-piperazin-1-yl-1H-benzimidazol-2-yl)-1H-pyridin-2-one] | 2000
